Experimental data published in the Kinase Knowledgebase extract (Sharma et al. 2016).

These compounds were tested against PIK3CG (human) (UniProt P48736) (assay: Assessment of PIK3CG Kinase Activity).
Sequence of PIK3CG (human) (P48736 whole entry, looked up): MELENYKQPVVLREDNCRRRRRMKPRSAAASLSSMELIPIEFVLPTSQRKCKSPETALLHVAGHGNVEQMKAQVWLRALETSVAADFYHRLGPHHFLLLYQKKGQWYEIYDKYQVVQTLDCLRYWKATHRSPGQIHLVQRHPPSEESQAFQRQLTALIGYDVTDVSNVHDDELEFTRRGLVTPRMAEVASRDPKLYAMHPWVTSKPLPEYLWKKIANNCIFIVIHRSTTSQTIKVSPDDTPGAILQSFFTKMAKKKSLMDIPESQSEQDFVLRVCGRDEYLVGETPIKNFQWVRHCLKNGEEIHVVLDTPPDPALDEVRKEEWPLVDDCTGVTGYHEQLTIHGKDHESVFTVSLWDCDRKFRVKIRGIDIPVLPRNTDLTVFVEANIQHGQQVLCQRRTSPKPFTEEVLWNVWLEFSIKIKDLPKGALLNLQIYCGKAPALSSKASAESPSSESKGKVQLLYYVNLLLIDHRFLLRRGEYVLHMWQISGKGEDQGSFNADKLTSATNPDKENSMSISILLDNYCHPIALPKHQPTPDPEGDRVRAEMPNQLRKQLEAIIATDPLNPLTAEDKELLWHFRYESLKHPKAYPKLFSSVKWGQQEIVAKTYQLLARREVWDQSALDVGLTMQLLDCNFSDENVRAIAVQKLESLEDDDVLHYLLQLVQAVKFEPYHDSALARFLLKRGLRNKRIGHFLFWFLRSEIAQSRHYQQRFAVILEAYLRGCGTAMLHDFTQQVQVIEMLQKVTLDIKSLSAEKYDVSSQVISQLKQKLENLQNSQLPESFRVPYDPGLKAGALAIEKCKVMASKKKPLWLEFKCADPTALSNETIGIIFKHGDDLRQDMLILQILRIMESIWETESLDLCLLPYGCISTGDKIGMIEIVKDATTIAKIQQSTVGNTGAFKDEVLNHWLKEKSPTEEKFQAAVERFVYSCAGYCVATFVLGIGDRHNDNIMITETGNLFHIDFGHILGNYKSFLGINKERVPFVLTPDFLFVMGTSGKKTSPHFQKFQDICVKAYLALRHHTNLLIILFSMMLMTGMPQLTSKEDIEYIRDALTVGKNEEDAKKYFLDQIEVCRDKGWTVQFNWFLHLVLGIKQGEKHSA

Row | SMILES | IC50
1 | CC(C)N1CC(=O)N(C)c2cnc(Nc3cc(NS(=O)(=O)Cc4ccccc4)cc(S(C)(=O)=O)c3)nc21 | < 800 nM
2 | CC(C)N1CC(=O)N(C)c2cnc(Nc3cc(NC(=O)[C@@H](C)c4ccccc4)cc(S(C)(=O)=O)c3)nc21 | < 800 nM
3 | CC(C)N1CC(=O)N(C)c2cnc(Nc3cc(NC(=O)[C@@H]4CCCN4C4CCCC4)cc(S(C)(=O)=O)c3)nc21 | < 800 nM
4 | CC(C)N1CC(=O)N(C)c2cnc(Nc3cc(C(N)=O)cc(C(F)(F)F)c3)nc21 | < 800 nM
5 | CC(C)N1CC(=O)N(C)c2cnc(Nc3cccc(S(=O)(=O)CCNC4CCC4)c3)nc21 | < 800 nM
6 | CC(C)N1CC(=O)N(C)c2cnc(Nc3cc(NC(=O)N[C@H]4CCN(C5CCCC5)C4)cc(S(C)(=O)=O)c3)nc21 | < 800 nM
7 | COc1cc(Nc2ncc3c(n2)N(C(C)C)CC(=O)N3C)cc(S(C)(=O)=O)c1 | < 800 nM
8 | Cc1cc(CNC(=O)Nc2cc(Nc3ncc4c(n3)N(C(C)C)CC(=O)N4C)cc(S(C)(=O)=O)c2)n[nH]1 | < 800 nM
9 | CC(C)N1CC(=O)N(C)c2cnc(Nc3cc(NC(=O)Cc4cc5ccccc5n4C)cc(S(C)(=O)=O)c3)nc21 | < 800 nM
10 | CC(C)N1CC(=O)N(C)c2cnc(Nc3cc(NC(=O)NCC4CC4)cc(S(C)(=O)=O)c3)nc21 | < 800 nM
11 | CC(C)N1CC(=O)N(C)c2cnc(Nc3cc(NC(=O)Cc4nnn[nH]4)cc(S(C)(=O)=O)c3)nc21 | < 800 nM
12 | CC(C)N1CC(=O)N(C)c2cnc(Nc3cccc(S(=O)(=O)C(C)C)c3)nc21 | < 800 nM
13 | CC(C)N1CC(=O)N(C)c2cnc(Nc3cc(NC(=O)N[C@H]4CCN(Cc5ccccc5)C4)cc(S(C)(=O)=O)c3)nc21 | < 800 nM
14 | CC(C)N1CC(=O)N(C)c2cnc(Nc3cc(NC(=O)NCc4ccccc4)cc(S(C)(=O)=O)c3)nc21 | < 800 nM
15 | CCC(C(=O)Nc1cc(Nc2ncc3c(n2)N(C(C)C)CC(=O)N3C)cc(S(C)(=O)=O)c1)c1ccccc1 (stereo not given) | < 800 nM
16 | CC(C)N1CC(=O)N(C)c2cnc(Nc3cc(NC(=O)C4CNCCO4)cc(S(C)(=O)=O)c3)nc21 (stereo not given) | < 800 nM
17 | CC(C)N1CC(=O)N(C)c2cnc(Nc3cc(NS(=O)(=O)c4ccc(F)cc4)cc(S(C)(=O)=O)c3)nc21 | < 800 nM
18 | CC(C)N1CC(=O)N(C)c2cnc(Nc3cc(C(=O)NCCCN(C)C)cc(S(C)(=O)=O)c3)nc21 | < 800 nM
19 | CC(C)N1CC(=O)N(C)c2cnc(Nc3cc(NC(=O)N(C)C[C@@H]4CCCN4C4CCCC4)cc(S(C)(=O)=O)c3)nc21 | < 800 nM
20 | CC(C)N1CC(=O)N(C)c2cnc(Nc3cc(NC(=O)C4CCCCN4)cc(S(C)(=O)=O)c3)nc21 (stereo not given) | < 800 nM
21 | CC(C)N1CC(=O)N(C)c2cnc(Nc3cc(NC(=O)O[C@H]4CCN(C5CCCC5)C4)cc(S(C)(=O)=O)c3)nc21 | < 800 nM
22 | CC(C)N1CC(=O)N(C)c2cnc(Nc3cc(C(=O)N(C)Cc4ccncc4)cc(S(C)(=O)=O)c3)nc21 | < 800 nM
23 | CC(C)N1CC(=O)N(C)c2cnc(Nc3cc(NC(=O)c4csc5ccccc45)cc(S(C)(=O)=O)c3)nc21 | < 800 nM
24 | CC(C)N1CC(=O)N(C)c2cnc(Nc3cc(NC(=O)C[C@H]4CCN(C5CCCC5)C4)cc(S(C)(=O)=O)c3)nc21 | < 800 nM
25 | CC(C)N1CC(=O)N(C)c2cnc(Nc3cc(NC(=O)NC[C@H]4CCCN4)cc(S(C)(=O)=O)c3)nc21 | < 800 nM

Row | SMILES | IC50
26 | CC(C)N1CC(=O)N(C)c2cnc(Nc3cc(C(=O)NCCC4CCCN4C)cc(C(F)(F)F)c3)nc21 (stereo not given) | < 800 nM
27 | CC(C)N1CC(=O)N(C)c2cnc(Nc3cc(NC(=O)C4CN(C5CCCC5)CCO4)cc(S(C)(=O)=O)c3)nc21 (stereo not given) | < 800 nM
28 | CC(C)N1CC(=O)N(C)c2cnc(Nc3cc(NS(C)(=O)=O)cc(C(=O)NCCN4CCNC4=O)c3)nc21 | < 800 nM
29 | CC(C)N1CC(=O)N(C)c2cnc(Nc3cc(NC(=O)N(C)Cc4ccncc4)cc(S(C)(=O)=O)c3)nc21 | < 800 nM
30 | CC(C)N1CC(=O)N(C)c2cnc(Nc3cc(NS(C)(=O)=O)cc(C(=O)NC4CCN(C)C4)c3)nc21 (stereo not given) | < 800 nM
31 | CC(C)N1CC(=O)N(C)c2cnc(Nc3cc(C(=O)NCCN4CCNC4=O)cc(C(F)(F)F)c3)nc21 | < 800 nM
32 | CC(C)N1CC(=O)N(C)c2cnc(Nc3cc(C(=O)NCCN(C)C)cc(S(C)(=O)=O)c3)nc21 | < 800 nM
33 | CC(C)N1CC(=O)N(C)c2cnc(Nc3cc(C(N)=O)cc(S(C)(=O)=O)c3)nc21 | < 800 nM
34 | CC(C)N1CC(=O)N(C)c2cnc(Nc3cc(NC(=O)NC4CCN(C)CC4)cc(S(C)(=O)=O)c3)nc21 | < 800 nM
35 | CC(C)N1CC(=O)N(C)c2cnc(Nc3cc(NC(=O)NC[C@H]4CCCN4c4ccncc4)cc(S(C)(=O)=O)c3)nc21 | < 800 nM
36 | CC(C)N1CC(=O)N(C)c2cnc(Nc3cc(NC(=O)NCCN4CCNC4=O)cc(S(C)(=O)=O)c3)nc21 | < 800 nM
37 | CC(C)N1CC(=O)N(C)c2cnc(Nc3cc(C(=O)NCCN4CCNC4=O)cc(S(C)(=O)=O)c3)nc21 | < 800 nM
38 | CC(C)N1CC(=O)N(C)c2cnc(Nc3cc(NC(=O)[C@@H]4CCN(C5CCCC5)C4)cc(S(C)(=O)=O)c3)nc21 | < 800 nM
39 | CC(C)N1CC(=O)N(C)c2cnc(Nc3cc(NC(=O)[C@H](C)C4CCCCC4)cc(S(C)(=O)=O)c3)nc21 | < 800 nM
40 | CC(C)N1CC(=O)N(C)c2cnc(Nc3cc(NC(=O)N4CCOCC4)cc(S(C)(=O)=O)c3)nc21 | < 800 nM
41 | CC(C)N1CC(=O)N(C)c2cnc(Nc3cc(NC(=O)NC[C@@H]4CCCO4)cc(S(C)(=O)=O)c3)nc21 | < 800 nM
42 | CC(C)N1CC(=O)N(C)c2cnc(Nc3cc(CS(C)(=O)=O)cc(C(F)(F)F)c3)nc21 | < 800 nM
43 | CC(C)N1CC(=O)N(C)c2cnc(Nc3cc(NC(=O)NC[C@@H]4CCNC4)cc(S(C)(=O)=O)c3)nc21 | < 800 nM
44 | CC(C)N1CC(=O)N(C)c2cnc(Nc3cc(NC(=O)N[C@@H]4CCNC4)cc(S(C)(=O)=O)c3)nc21 | < 800 nM
45 | CC(C)N1CC(=O)N(C)c2cnc(Nc3cc(NC(=O)Cc4cccc(Cl)c4)cc(S(C)(=O)=O)c3)nc21 | < 800 nM
46 | CCN1CCCC1CNC(=O)c1cc(Nc2ncc3c(n2)N(C(C)C)CC(=O)N3C)cc(NS(C)(=O)=O)c1 (stereo not given) | < 800 nM
47 | CC(C)N1CC(=O)N(C)c2cnc(Nc3cc(NC(=O)C[C@@H]4CCN(C5CCCC5)C4)cc(S(C)(=O)=O)c3)nc21 | < 800 nM
48 | CC(C)N1CC(=O)N(C)c2cnc(Nc3cc(Nc4ccc(CN5CCN(C)CC5)cc4)cc(S(C)(=O)=O)c3)nc21 | < 800 nM
49 | CC[C@@H]1CN(c2cccc(Nc3ncc4c(n3)N(C(C)C)CC(=O)N4C)c2)C(=O)CN1C | < 800 nM
50 | CC(C)N1CC(=O)N(C)c2cnc(Nc3cc(S(C)(=O)=O)cc(S(C)(=O)=O)c3)nc21 | < 800 nM

Other lines, results leading:

Row | IC50 | SMILES
51 | < 800 nM | CC(C)N1CC(=O)N(C)c2cnc(Nc3cc(NS(=O)(=O)c4ccc(N5CCOCC5)nc4)cc(S(N)(=O)=O)c3)nc21
52 | < 800 nM | CC(C)N1CC(=O)N(C)c2cnc(Nc3cc(NC(=O)[C@@H](N)c4ccccc4)cc(S(C)(=O)=O)c3)nc21
53 | < 800 nM | CC(C)N1CC(=O)N(C)c2cnc(Nc3cc(NC(=O)N[C@H]4CCN(C5CCOCC5)C4)cc(S(C)(=O)=O)c3)nc21
54 | < 800 nM | CC(C)N1CC(=O)N(C)c2cnc(Nc3cc(Cl)cc(S(C)(=O)=O)c3)nc21
55 | < 800 nM | CC(C)N1CC(=O)N(C)c2cnc(Nc3cc(NC(=O)N(C)C[C@H]4CCCN4C4CCCC4)cc(S(C)(=O)=O)c3)nc21
56 | < 800 nM | Cc1cccc(CC(=O)Nc2cc(Nc3ncc4c(n3)N(C(C)C)CC(=O)N4C)cc(S(C)(=O)=O)c2)c1
57 | < 800 nM | Cc1oncc1C(=O)Nc1cc(Nc2ncc3c(n2)N(C(C)C)CC(=O)N3C)cc(S(C)(=O)=O)c1
58 | < 800 nM | CC(C)N1CC(=O)N(C)c2cnc(Nc3cc(NC(=O)C[C@H]4CCNC4)cc(S(C)(=O)=O)c3)nc21
59 | < 800 nM | CC(C)N1CC(=O)N(C)c2cnc(Nc3cc(NC(=O)Cc4ccc(Cl)nc4)cc(S(C)(=O)=O)c3)nc21
60 | < 800 nM | CC(C)N1CC(=O)N(C)c2cnc(Nc3cc(N(C)C(=O)Cc4ccccc4)cc(S(C)(=O)=O)c3)nc21
61 | < 800 nM | CC(C)N1CC(=O)N(C)c2cnc(Nc3cccc(S(=O)(=O)CCN4CCOCC4)c3)nc21
62 | < 800 nM | CC(C)N1CC(=O)N(C)c2cnc(Nc3cc(C(F)(F)F)cc(S(C)(=O)=O)c3)nc21
63 | < 800 nM | CCc1cnc(CCNC(=O)Nc2cc(Nc3ncc4c(n3)N(C(C)C)CC(=O)N4C)cc(S(C)(=O)=O)c2)o1
64 | < 800 nM | CC(C)N1CC(=O)N(C)c2cnc(Nc3cc(NC(=O)Cc4c[nH]c5ccccc45)cc(S(C)(=O)=O)c3)nc21
65 | < 800 nM | CC(C)N1CC(=O)N(C)c2cnc(Nc3cc(NC(=O)N[C@@H]4CCN(C5CCOCC5)C4)cc(S(C)(=O)=O)c3)nc21
66 | < 800 nM | CN=[S@@](C)(=O)c1cccc(Nc2ncc3c(n2)N(C(C)C)CC(=O)N3C)c1
67 | < 800 nM | CC(C)N1CC(=O)N(C)c2cnc(Nc3cc(NC(=O)Cc4ccsc4)cc(S(C)(=O)=O)c3)nc21
68 | < 800 nM | CC(C)N1CC(=O)N(C)c2cnc(Nc3cc(NS(=O)(=O)CC4CCCCC4)cc(S(C)(=O)=O)c3)nc21
69 | < 800 nM | CC(C)N1CC(=O)N(C)c2cnc(Nc3cc(NC(=O)NC[C@@H]4CCCN4C4CCCC4)cc(S(C)(=O)=O)c3)nc21
70 | < 800 nM | CC(C)N1CC(=O)N(C)c2cnc(Nc3cc(NC(=O)N[C@H]4CC[C@@H](N)CC4)cc(S(C)(=O)=O)c3)nc21
71 | < 800 nM | Cc1ccccc1CC(=O)Nc1cc(Nc2ncc3c(n2)N(C(C)C)CC(=O)N3C)cc(S(C)(=O)=O)c1
72 | < 800 nM | CC(C)N1CC(=O)N(C)c2cnc(Nc3cc(NC(=O)[C@H](C)c4ccccc4)cc(S(C)(=O)=O)c3)nc21
73 | < 800 nM | CC(C)N1CC(=O)N(C)c2cnc(Nc3cc(N(C)C(=O)N[C@H]4CCN(Cc5ccccc5)C4)cc(S(C)(=O)=O)c3)nc21
74 | < 800 nM | CC(C)N1CC(=O)N(C)c2cnc(Nc3cc(NC(=O)N[C@@H]4CCN(C5CCCC5)C4)cc(NS(C)(=O)=O)c3)nc21
75 | < 800 nM | CC(C)N1CC(=O)N(C)c2cnc(Nc3cc(NS(C)(=O)=O)cc(C(=O)NCCC4CCCN4C)c3)nc21 (stereo not given)
76 | < 800 nM | CC(C)N1CC(=O)N(C)c2cnc(Nc3cc(NS(=O)(=O)c4ccc(F)cc4)cc(S(N)(=O)=O)c3)nc21
77 | < 800 nM | CC(C)N1CC(=O)N(C)c2cnc(Nc3cc(C(=O)NCc4ccncc4)cc(S(C)(=O)=O)c3)nc21
78 | < 800 nM | Cc1cc(CC(=O)N(C)c2cc(Nc3ncc4c(n3)N(C(C)C)CC(=O)N4C)cc(S(C)(=O)=O)c2)on1
79 | < 800 nM | CC(C)N1CC(=O)N(C)c2cnc(Nc3cc(NC(=O)[C@@H]4CCNC4)cc(S(C)(=O)=O)c3)nc21
80 | < 800 nM | CNC(=O)c1cc(Nc2ncc3c(n2)N(C(C)C)CC(=O)N3C)cc(C(F)(F)F)c1
